Laboratory results taken from patent publication US9605013B2, “Derivatives of hemin with antibacterial and antiviral activity” (OBSCHESTVO S OGRANICHENNOI OTVETSTVENNOSTIYU …, priority 2011, dated 2017).

Tested on: Enterococcus faecalis BKM B-871
Assay: Antibacterial activity, serial dilutions in liquid MH medium
Assay type: cell-based
Details: for MIC: MH medium, 20 h, 37° C., 100% growth inhibition; for MBC: no colonies on agarized MH medium
In short: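 Broth microdilution in Mueller-Hinton medium at 37 °C with stirring, using exponential-phase cultures seeded at 5×10^4 to 1×10^5 cells/mL with twofold serial compound dilutions. Growth inhibition read as A595 after 20 h, corrected for compound absorbance; MIC and MBC determined.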

Molecule	MIC [µM]	MBC [µM]
6,7-bis-[(Diamide N^α-L-Arginyl)-L-glutamyl]-Protohemin (IX)	25	50
C=CC1=C(C)c2cc3[n-]c(cc4[n-]c(cc5nc(cc1n2)C(C)=C5C=C)c(C)c4CCC(=O)N[C@@H](CCCNC(=N)N)C(N)=O)c(CCC(=O)N[C@@H](CCCNC(=N)N)C(N)=O)c3C.[Cl-].[Fe+3] [II, 6,7-bis-(Amide N^α-Arginyl)-Protohemin (IX)]	6.3	12.5
